Measurements taken from patent publication US4919932A, “Pharmaceutical formulation for the treatment of bacterial infections” (priority 1986, dated 1990).
In brackets after ≈: the same amount, converted by molar mass. Where two headings read alike, the source gives them in different places.

What was measured:
Staph. SG 511 = assay: MIC against Staph. SG 511; type: cell-based
Staph. 285 = assay: MIC against Staph. 285; type: cell-based
Staph. 503 = assay: MIC against Staph. 503; type: cell-based
Kl. aerog. 1082E = assay: MIC against Kl. aerog. 1082E; type: cell-based
Citrob. 82 Cull. = assay: MIC against Citrob. 82 Cull.; type: cell-based
Staph. 789 = assay: MIC against Staph. 789; type: cell-based; settings: clinical isolate resistant to the cephalosporin
Staph. 22130 = assay: MIC against Staph. 22130; type: cell-based; settings: clinical isolate resistant to the cephalosporin
Strept. faecium D = assay: MIC against Strept. faecium D; type: cell-based; settings: Enterococcus faecium, clinical isolate resistant to the cephalosporin
Ent. cl. M 423 = assay: MIC against Ent. cl. M 423; type: cell-based; settings: clinical isolate resistant to the cephalosporin
Ent. cl. P99 = assay: MIC against Ent. cl. P99; type: cell-based; settings: clinical isolate resistant to the cephalosporin
B. fragilis 312 = assay: MIC against B. fragilis 312; type: cell-based; settings: Bacteroides fragilis, anaerobic
B. fragilis 960 = assay: MIC against B. fragilis 960; type: cell-based; settings: Bacteroides fragilis, anaerobic
B. fragilis 17390 = assay: MIC against B. fragilis 17390; type: cell-based; settings: Bacteroides fragilis, anaerobic
B. fragilis 18125 = assay: MIC against B. fragilis 18125; type: cell-based; settings: Bacteroides fragilis, anaerobic
B. ovatus 103 = assay: MIC against B. ovatus 103; type: cell-based; settings: Bacteroides ovatus, anaerobic
B. vulgatus 1446 = assay: MIC against B. vulgatus 1446; type: cell-based; settings: Phocaeicola vulgatus, anaerobic
B. thetaiotaomicron 123 = assay: MIC against B. thetaiotaomicron 123; type: cell-based; settings: Bacteroides thetaiotaomicron, anaerobic
Sph. varius 5262 = assay: MIC against Sph. varius 5262; type: cell-based; settings: Fusobacterium varium, anaerobic
Cl. tetani 19406 = assay: microbe, parasite or virus in culture; type: cell-based; settings: Clostridium tetani
Strept. D 21777 = assay: MIC against Strept. D 21777; type: cell-based
Strept. D 26777 = assay: MIC against Strept. D 26777; type: cell-based
Ent. cl. 2240 Cull. = assay: MIC against Ent. cl. 2240 Cull.; type: cell-based
E. coli 2139E = assay: MIC against E. coli 2139E; type: cell-based; settings: Escherichia coli
Kl. pneu. 1976E = assay: MIC against Kl. pneu. 1976E; type: cell-based
B. distasonis 1366 = assay: MIC against B. distasonis 1366; type: cell-based; settings: Parabacteroides distasonis
Citrob. 2901 = assay: MIC against Citrob. 2901
Ent. cl. M. 447 = assay: MIC against Ent. cl. M. 447

Row | SMILES | MIC (Staph. SG 511) [µg/mL] | MIC (Staph. 285) [µg/mL] | MIC (Staph. 503) [µg/mL] | MIC (Kl. aerog. 1082E) [µg/mL] | MIC (Citrob. 82 Cull.) [µg/mL] | MIC (Staph. 789) [µg/mL] | MIC (Staph. 22130) [µg/mL] | MIC (Strept. faecium D) [µg/mL] | MIC (Ent. cl. M 423) [µg/mL] | MIC (Ent. cl. P99) [µg/mL] | MIC (B. fragilis 312) [µg/mL] | MIC (B. fragilis 960) [µg/mL] | MIC (B. fragilis 17390) [µg/mL] | MIC (B. fragilis 18125) [µg/mL] | MIC (B. ovatus 103) [µg/mL] | MIC (B. vulgatus 1446) [µg/mL] | MIC (B. thetaiotaomicron 123) [µg/mL] | MIC (Sph. varius 5262) [µg/mL] | MIC (Cl. tetani 19406) [µg/mL] | MIC (Strept. D 21777) [µg/mL] | also measured
1 | CC(O)C1C(=O)N2C(C(=O)O)=C(Oc3ccc(C(N)=O)cc3)SC12 (stereo not drawn) [(1), sodium 5R,6S-6-(1R-hydroxyethyl)-3-(4-carbamoyl-phenoxy)-7-oxo-4-thia-1-azabicyclo[3.2.0]hept-2-ene-2-carboxylate] | 0.062 | 0.062 | 0.062 | 0.5 | 1 | 4 | 2 | 8 | 4 | 2 | 0.125 | 0.125 | 0.25 | 0.25 | 0.125 | 0.125 | 0.125 | 0.25 | 0.25 | 8 | MIC (Strept. D 26777): 8 µg/mL; MIC (Ent. cl. 2240 Cull.): 2 µg/mL; MIC (E. coli 2139E): 1 µg/mL; MIC (Kl. pneu. 1976E): 1 µg/mL; MIC (B. distasonis 1366; B. distasonis 1366, read-out: MIC): 0.25 µg/mL; MIC (Citrob. 2901): 8 µg/mL; MIC (Ent. cl. M. 447): 16 µg/mL
2 | CO/N=C(\C(=O)N[C@@H]1C(=O)N2C(C(=O)O)=C(COC(C)=O)CS[C@H]12)c1csc(N)n1 [(2)] | 2 (≈ 4.39 µM) | 2 (≈ 4.39 µM) | 2 (≈ 4.39 µM) | 1 (≈ 2.2 µM) | 2 (≈ 4.39 µM) | 64 (≈ 141 µM) | 32 (≈ 70.3 µM) | 64 (≈ 141 µM) | 64 (≈ 141 µM) | 64 (≈ 141 µM) | 128 (≈ 281 µM) | 16 (≈ 35.1 µM) | 8 (≈ 17.6 µM) | 2 (≈ 4.39 µM) | 64 (≈ 141 µM) | 64 (≈ 141 µM) | 64 (≈ 141 µM) | 64 (≈ 141 µM) | 8 (≈ 17.6 µM) | 64 (≈ 141 µM) | MIC (Strept. D 26777): 64 µg/mL (≈ 141 µM); MIC (Ent. cl. 2240 Cull.): 0.062 µg/mL (≈ 0.136 µM); MIC (E. coli 2139E): 0.031 µg/mL (≈ 0.0681 µM); MIC (Kl. pneu. 1976E): 0.062 µg/mL (≈ 0.136 µM); MIC (B. distasonis 1366; 1366): 0.125 µg/mL (≈ 0.274 µM); MIC (Citrob. 2901): 64 µg/mL (≈ 141 µM); MIC (Ent. cl. M. 447): 64 µg/mL (≈ 141 µM)
